The source of these data is US20240197674A1, “NOVEL USE OF 3-(4-(BENZYLOXY)PHENYL)HEX-4-INOIC ACID DERIVATIVE” (Hyundai Pharm Co., Ltd., priority 2021, published 2024).

Entries after “also recorded” stand apart in the source; their conditions may differ.

Common to all, as to assay type: cell-based
The subject of experiment [1] is C2C12 cells. In words: Expression of myogenic factors MyoG and MyHC by western blotting in C2C12 myoblasts. Particulars: differentiation medium (2% horse serum DMEM), 3 days. On the procedure:
(§1) C2C12 cells, which are myoblasts, were cultured and treated with a mixture of Compound A in a differentiation medium [2% horse serum (Cat No. 16050, Invitrogen, USA)-containing DMEM (Cat No. 11965, Invitrogen)] for 3 days. Afterward, the change in expression of myogenin (myogenic factor 4, MyoG) and a myosin heavy chain (MyHC), which are known as myogenic factors, was confirmed by western blotting. As primary antibodies, a MyoG antibody (Santa Cruz, sc-12732), a MyHC antibody (Santa Cruz, sc-32732), and a beta-actin antibody (Santa Cruz, sc-47778) were used. As a result, it can be confirmed that the higher the treatment concentration of Compound A, the higher the expression of MyoG and MyHC (FIG. 1).
(§2) Since Compound A is known as a G-protein-coupled receptor40 agonist (GPR40 agonist), it was confirmed whether the myogenesis promoting effect (Experimental Example 1) of Compound A is a general effect of GPR40 agonists. Specifically, experiments were conducted in the same manner as in Experimental Examples 1 and 2, except that C2C12 cells were treated with LY2922470 instead of Compound A. As a result of the experiments, it can be seen that, when the C2C12 cells were treated with LY2922470, the expression of myogenic factors MyoG and MyHC was inhibited (FIG. 7), the MyHC positive area decreased, and myotube formation was inhibited (FIG. 8).
(Immunoblotting shows a protein as a band on a membrane.)

Experiment [2] concerns C2C12 cells. In words: MyHC immunohistochemistry: MyHC positive area, myotube thickness and myotube formation. Particulars: C2C12 myoblasts, differentiation medium, 3 days. On the procedure:
as §1
In addition, C2C12 cells were treated with Compound A in the same manner as above, and then immunohistochemistry was performed with a MyHC antibody. As a result, it was confirmed that, as the treatment concentration of Compound A increases, the MyHC positive area and myotube thickness increase (FIG. 2).
as §2

The test system of experiment [3] is C2C12 cells. In words: Bax/Bcl2 ratio by western blotting after palmitate treatment. Particulars: with palmitate in growth medium, 24 hours, versus palmitate only. How it is done: (§3) Sarcopenia is known to be accelerated by diabetes, obesity, or inflammatory responses. Accordingly, it was confirmed whether Compound A can inhibit muscle loss even under the above conditions as follows. Palmitate (PA; P9767, Sigma-Aldrich, USA) was dissolved in ethanol and then mixed with bovine serum albumin (BSA; A7888, Sigma-Aldrich) dissolved in DMEM at a molar ratio of 6:1, followed by conjugation at 60° C. for 1 hour. Cells were treated with the resulting conjugate.
(§4) After mixing Compound A and the palmitate in a growth medium (10% FBS (Cat No. 16000, Invitrogen)-containing DMEM), C2C12 cells were treated with the resulting mixture for 24 hours, and then a Bax/Bcl2 ratio was confirmed by western blotting and cell viability was assessed using a cell viability assay kit (Dozen, EZ-3000). Primary antibodies used herein were the Bax antibody (Santa Cruz, sc-7480) and Bcl2 antibody (Santa Cruz, sc-7382). Bax is a protein inducing apoptosis, and Bcl2 is a protein inhibiting apoptosis by hindering the migration of Bax to mitochondria.

The subject of experiment [4] is C2C12 cells. In words: Cell viability assay kit after palmitate treatment. Conditions: with palmitate in growth medium, 24 hours, versus palmitate only. On the procedure: as §3, §4, §2
Experiment [5] concerns C2C12 cells. Nature of the experiment: MyoG and MyHC expression after palmitate treatment and 3 days of differentiation. Conditions: with palmitate 24 hours, then 3 days differentiation, versus decrease by palmitate only. On the procedure: as §3
(§5) Compound A and the palmitate were mixed in a growth medium (10% FBS-containing DMEM), and C2C12 cells were treated with the resulting mixture. After 24 hours, the medium was exchanged with a fresh […] to induce differentiation for 3 days, and after 3 days, the cells were collected to confirm the expression of MyoG and MyHC, and the changes in MyHC positive area and myotube thickness.

The test system of experiment [6] is C2C12 cells. In words: MyHC positive area and myotube thickness after palmitate treatment and 3 days of differentiation. Conditions: with palmitate 24 hours, then 3 days differentiation, versus decrease by palmitate only. How it is done: as §3, §5
Experiment [7] concerns C2C12 cells. In words: Atrogin-1 expression in differentiated C2C12 myotubes treated with palmitate. Conditions: C2C12 differentiated 6 days into myotubes, with palmitate in differentiation medium, versus palmitate only. On the procedure:
as §3
(§6) Atrogin-1 is a type of E3 ubiquitin ligase and a marker associated with muscular atrophy, and it is known that, as its gene expression increases, muscle is broken down. To confirm the change in atrogin-1 expression by Compound A, C2C12 cells were cultured in a differentiation medium for 6 days to induce differentiation into myotubes, and the differentiated cells were treated with a mixture of Compound A and palmitate in a differentiation medium. Afterward, an expression level was confirmed using an atrogin-1 antibody (Abnova, PAB15627), and cell viability was measured.

Experiment [8] relates to C2C12 cells. Nature of the experiment: Cell viability of differentiated C2C12 myotubes treated with palmitate. Conditions: C2C12 differentiated 6 days into myotubes, with palmitate in differentiation medium, versus palmitate only. On the procedure:
as §3, §6

The mark [9] stands for this setting: immunohistochemistry with MyHC antibody.

On to `CC#C[C@@H](CC(=O)O)c1ccc(OCc2cccc(C3=CCC4(CC3)OCCO4)c2)cc1` [Compound A, (3S)-3-(4-(3-(1,4-dioxaspiro[4,5]des-7-en-8-yl)benzyloxy)phenyl)hex-4-inoic acid], for which the entries for the “expression of MyHC” value in experiment [1] and in experiment [5] were “higher” and “reversed”, respectively. Also, the “expression of MyoG” value is “higher” in experiment [1] and “reversed” in experiment [5]. The MyHC positive area entry was “increase” in experiment [2] (setting [9]) and “reversed” in experiment [6]. For the same compound, the myotube thickness result in experiment [2] (setting [9]) is “increase”; in experiment [6], “reversed”. Moreover, in experiment [3], the Bax/Bcl2 ratio result was “decreased”. For the same compound, the “cell viability (apoptosis caused by palmitate)” value in experiment [4] was “increased; also recorded: inhibited apoptosis”. Besides, the atrogin-1 expression entry in experiment [7] was “decreased”. The cell viability result in experiment [8] is listed as “recovered”.

On to `CC#C[C@@H](CC(=O)O)c1ccc(OCc2cccc(C3=CCC4(CC3)OCCO4)c2)cc1` [compound of Formula 1, (3S)-3-(4-(3-(1,4-dioxaspiro[4,5]des-7-en-8-yl)benzyloxy)phenyl)hex-4-inoic acid], for which, in experiment [1], the “expression of MyHC” value was “increases” and the “expression of MyoG” value is reported as “increases”. Also, in experiment [2], the myotube formation result is given as “promoted”. Also, in experiment [3], the Bax/Bcl2 ratio entry is listed as “reversed”. Further, the “cell viability (apoptosis caused by palmitate)” value in experiment [4] is “reversed”. Moreover, in experiment [5], the “expression of MyHC” value is given as “reversed” and the “expression of MyoG” value is listed as “reversed”. Besides, in experiment [6], the MyHC positive area entry is on record as “reversed” and the myotube thickness entry is “reversed”.

For the compound `CC#C[C@@H](CC(=O)O)c1ccc(OCc2ccc(CN3CCCc4cccc(OC)c43)s2)cc1` [LY2922470, reference compound], in experiment [1], the “expression of MyHC” value is given as “inhibited” and the “expression of MyoG” value is given as “inhibited”. For the same compound, in experiment [2], the myotube formation entry was “inhibited”. The MyHC positive area entry in experiment [2] (setting [9]) is listed as “decreased”. In addition, in experiment [4], the “cell viability (apoptosis caused by palmitate)” value was “did not inhibit apoptosis”.
